In patent US20240299385A1 (ReWind Therapeutics NV, priority 2021, published 2024):

Target: T1, human GPR17 receptor (Homo sapiens, UniProt Q13304)
T1 construct: host or cells: HEK-293
Test: Calcium mobilization functional assay (Fluo-8, FLIPR TETRA) in HEK-293 hGPR17 (Gα-q assay)
Assay type: cell-based
Conditions: antagonism of MDL29,951 (~EC80) induced Ca2+ signal; cell line (HEK-293 hGPR17 or HEK-293 Suchi5 hGPR17) not given
Method in brief: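 Fluo-8-loaded HEK-293 hGPR17 cells (60 min dye loading, room temperature) were preincubated with compound for twenty minutes, then challenged with agonist MDL29,951 at ~EC80, 500 nM. Intracellular calcium release via Gα-q was recorded as FLIPR fluorescence for a further 2 minutes; compounds tested in duplicate.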

T1 sequence (Q13304 whole entry): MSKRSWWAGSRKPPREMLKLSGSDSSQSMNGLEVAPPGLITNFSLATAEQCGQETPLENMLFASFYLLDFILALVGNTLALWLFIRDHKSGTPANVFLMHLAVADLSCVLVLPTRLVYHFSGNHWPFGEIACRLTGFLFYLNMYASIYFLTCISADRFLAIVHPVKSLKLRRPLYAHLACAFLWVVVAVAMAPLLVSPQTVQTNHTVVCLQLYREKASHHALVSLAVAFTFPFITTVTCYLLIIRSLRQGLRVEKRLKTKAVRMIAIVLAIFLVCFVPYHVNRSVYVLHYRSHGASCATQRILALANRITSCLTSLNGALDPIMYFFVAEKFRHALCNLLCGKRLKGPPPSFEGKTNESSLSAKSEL

IC50	SMILES
0.5 to 5 µM	O=S(=O)(Nc1cc(F)c(C(F)(F)F)cc1F)c1c[nH]c(-c2cccc(F)c2)c1 [Cpd 114, N-[2,5-difluoro-4-(trifluoromethyl)phenyl]-5-(3-fluorophenyl)-1H-pyrrole-3-sulfonamide]
5 to 50 µM	O=S(=O)(Nc1ccc(OCCF)cc1F)c1c[nH]c(-c2ccccc2F)c1 [Cpd 115, N-[2-fluoro-4-(2-fluoroethoxy)phenyl]-5-(2-fluorophenyl)-1H-pyrrole-3-sulfonamide]
< 0.5 µM	COc1nc(OC(F)F)c(F)cc1NS(=O)(=O)c1c[nH]c(-c2ccccc2F)c1 [Cpd 116, N-[6-(difluoromethoxy)-5-fluoro-2-methoxy-3-pyridyl]-5-(2-fluorophenyl)-1H-pyrrole-3-sulfonamide]
0.5 to 5 µM	COc1ccc(F)c(-c2cc(S(=O)(=O)Nc3cc(F)c(C(F)(F)F)cc3F)c[nH]2)c1 [Cpd 117, N-[2,5-difluoro-4-(trifluoromethyl)phenyl]-5-(2-fluoro-5-methoxy-phenyl)-1H-pyrrole-3-sulfonamide]
0.5 to 5 µM	Cc1ccccc1-c1cc(S(=O)(=O)Nc2cc(F)c(C(F)(F)F)cc2F)c[nH]1 [Cpd 118, N-[2,5-difluoro-4-(trifluoromethyl)phenyl]-5-(o-tolyl)-1H-pyrrole-3-sulfonamide]
< 0.5 µM	O=S(=O)(Nc1cc(F)c(C(F)(F)F)cc1F)c1c[nH]c(-c2c(F)cccc2F)c1 [Cpd 119, 5-(2,6-difluorophenyl)-N-[2,5-difluoro-4-(trifluoromethyl)phenyl]-1H-pyrrole-3-sulfonamide]
5 to 50 µM	O=S(=O)(Nc1ccc(F)cc1F)c1c[nH]c(-c2cccc(F)c2)c1 [Cpd 120, N-(2,4-difluorophenyl)-5-(3-fluorophenyl)-1H-pyrrole-3-sulfonamide]
5 to 50 µM	O=S(=O)(Nc1ccc(F)cc1F)c1c[nH]c(-c2ccccn2)c1 [Cpd 122, N-(2,4-difluorophenyl)-5-(2-pyridyl)-1H-pyrrole-3-sulfonamide]
0.5 to 5 µM	O=S(=O)(Nc1ccc(C(F)(F)F)cc1F)c1c[nH]c(-c2ccccn2)c1 [Cpd 123, N-[2-fluoro-4-(trifluoromethyl)phenyl]-5-(2-pyridyl)-1H-pyrrole-3-sulfonamide]
< 0.5 µM	O=S(=O)(Nc1cc(F)c(C(F)(F)F)cc1F)c1c[nH]c(-c2ccccn2)c1 [Cpd 124, N-[2,5-difluoro-4-(trifluoromethyl)phenyl]-5-(2-pyridyl)-1H-pyrrole-3-sulfonamide]
5 to 50 µM	O=S(=O)(Nc1cccc(F)c1)c1c[nH]c(-c2ccccn2)c1 [Cpd 125, N-(3-fluorophenyl)-5-(2-pyridyl)-1H-pyrrole-3-sulfonamide]
0.5 to 5 µM	Cc1nc(Cl)ccc1NS(=O)(=O)c1c[nH]c(-c2ccccc2)c1 [Cpd 126, N-(6-chloro-2-methyl-3-pyridyl)-5-phenyl-1H-pyrrole-3-sulfonamide]
5 to 50 µM	Cc1ccc(NS(=O)(=O)c2c[nH]c(-c3ccccc3)c2)c(Cl)n1 [Cpd 127, N-(2-chloro-6-methyl-3-pyridyl)-5-phenyl-1H-pyrrole-3-sulfonamide]
5 to 50 µM	COc1nc(C)ccc1NS(=O)(=O)c1c[nH]c(-c2ccccc2)c1 [Cpd 128, N-(2-methoxy-6-methyl-3-pyridyl)-5-phenyl-1H-pyrrole-3-sulfonamide]
0.5 to 5 µM	Cc1ccnc(C)c1NS(=O)(=O)c1c[nH]c(-c2ccccc2)c1 [Cpd 129, N-(2,4-dimethyl-3-pyridyl)-5-phenyl-1H-pyrrole-3-sulfonamide]
5 to 50 µM	COCCOc1ccc(NS(=O)(=O)c2c[nH]c(-c3ccccc3F)c2)c(F)c1 [Cpd 130, N-[2-fluoro-4-(2-methoxyethoxy)phenyl]-5-(2-fluorophenyl)-1H-pyrrole-3-sulfonamide]

IC50	SMILES
0.5 to 5 µM	O=S(=O)(Nc1cc(F)c(F)cc1F)c1c[nH]c(-c2c(F)cccc2F)c1 [Cpd 131, 5-(2,6-difluorophenyl)-N-(2,4,5-trifluorophenyl)-1H-pyrrole-3-sulfonamide]
0.5 to 5 µM	O=S(=O)(Nc1cc(F)c(C(F)(F)F)cc1F)c1c[nH]c(C2CCCC2)c1 [Cpd 132, 5-cyclopentyl-N-[2,5-difluoro-4-(trifluoromethyl)phenyl]-1H-pyrrole-3-sulfonamide]
5 to 50 µM	O=S(=O)(Nc1ncc(F)cc1F)c1c[nH]c(-c2ccccc2F)c1 [Cpd 133, N-(3,5-difluoro-2-pyridyl)-5-(2-fluorophenyl)-1H-pyrrole-3-sulfonamide]
0.5 to 5 µM	COc1cc(Cl)cnc1NS(=O)(=O)c1c[nH]c(-c2ccccc2)c1 [Cpd 134, N-(5-chloro-3-methoxy-2-pyridyl)-5-phenyl-1H-pyrrole-3-sulfonamide]
0.5 to 5 µM	Cc1nc(C(F)(F)F)ccc1NS(=O)(=O)c1c[nH]c(-c2ccccc2)c1 [Cpd 135, N-[2-methyl-6-(trifluoromethyl)-3-pyridyl]-5-phenyl-1H-pyrrole-3-sulfonamide]
0.5 to 5 µM	Cc1cnc(NS(=O)(=O)c2c[nH]c(-c3ccccc3)c2)c(F)c1 [Cpd 136, N-(3-fluoro-5-methyl-2-pyridyl)-5-phenyl-1H-pyrrole-3-sulfonamide]
0.5 to 5 µM	O=S(=O)(Nc1cc(F)c(F)cc1F)c1c[nH]c(-c2ccccc2)c1 [Cpd 137, 5-phenyl-N-(2,4,5-trifluorophenyl)-1H-pyrrole-3-sulfonamide]
5 to 50 µM	O=S(=O)(Nc1ccc(C(F)(F)F)cn1)c1c[nH]c(-c2ccccc2)c1 [Cpd 138, 5-phenyl-N-[5-(trifluoromethyl)-2-pyridyl]-1H-pyrrole-3-sulfonamide]
0.5 to 5 µM	O=S(=O)(Nc1cc(C(F)(F)F)ccn1)c1c[nH]c(-c2ccccc2)c1 [Cpd 139, 5-phenyl-N-[4-(trifluoromethyl)-2-pyridyl]-1H-pyrrole-3-sulfonamide]
0.5 to 5 µM	O=S(=O)(Nc1ncc(C(F)(F)F)cc1F)c1c[nH]c(-c2ccccc2)c1 [Cpd 140, N-[3-fluoro-5-(trifluoromethyl)-2-pyridyl]-5-phenyl-1H-pyrrole-3-sulfonamide]
0.5 to 5 µM	O=S(=O)(Nc1cccc2c1OC(F)(F)O2)c1c[nH]c(-c2ccccc2)c1 [Cpd 141, N-(2,2-difluoro-1,3-benzodioxol-4-yl)-5-phenyl-1H-pyrrole-3-sulfonamide]
0.5 to 5 µM	O=S(=O)(Nc1cnc(Cl)cc1F)c1c[nH]c(-c2ccccc2F)c1 [Cpd 142, N-(6-chloro-4-fluoro-3-pyridyl)-5-(2-fluorophenyl)-1H-pyrrole-3-sulfonamide]
0.5 to 5 µM	O=S(=O)(Nc1ccc(OC(F)(F)F)cc1F)c1c[nH]c(-c2ccccc2)c1 [Cpd 143, N-[2-fluoro-4-(trifluoromethoxy)phenyl]-5-phenyl-1H-pyrrole-3-sulfonamide]
5 to 50 µM	COc1cc(C(F)(F)F)ccc1NS(=O)(=O)c1c[nH]c(-c2ccccc2)c1 [Cpd 144, N-[2-methoxy-4-(trifluoromethyl)phenyl]-5-phenyl-1H-pyrrole-3-sulfonamide]
0.5 to 5 µM	O=S(=O)(Nc1cc(F)c(Cl)cc1F)c1c[nH]c(-c2ccccc2)c1 [Cpd 145, N-(4-chloro-2,5-difluoro-phenyl)-5-phenyl-1H-pyrrole-3-sulfonamide]
5 to 50 µM	O=S(=O)(Nc1cc(Cl)ncc1F)c1c[nH]c(-c2ccccc2)c1 [Cpd 146, N-(2-chloro-5-fluoro-4-pyridyl)-5-phenyl-1H-pyrrole-3-sulfonamide]
